Data reported in US20200170291A1, “PROCESSES FOR PRODUCING LACTITOL GRANULATES AND GRANULATES PRODUCED THEREBY” (PARTICLE DYNAMICS INTERNATIONAL, LLC, priority 2017, published 2020).
Where two headings read alike, the source gives them in different places.

What was measured:
[1] = MALVERN MASTERSIZER 2000 particle size (d10, d50, d90); assay type: physicochemical
Description: All particle size (PS) analyses were conducted using a ROTAP Particle Size Analyzer and a MALVERN MASTERSIZER 2000, except as otherwise indicated. All particle size data were measured in microns and analyzed via the MALVERN MASTERSIZER 2000.

[2] = HANSON FLODEX powder flowability (viscosity); assay type: physicochemical
From the text: Samples were also subjected to flowability testing using a HANSON FLODEX Powder Flowability tester. The basis for the method is the powders ability to fall freely through a hole in a plate. The diameter of the smallest hole through which the powder passes is considered the flowability index. The flowability index (radius of hole size in cm) along with the bulk density of the material tested are then used to determine the viscosity (internal friction coefficient) of the powder. Lower powder viscosity indicates better flowability.
Samples of the finished lactitol granulations produced during execution of the commercial optimization protocol were also evaluated for flow using the HANSON Intrinsic Flowability Test. During the test, the smallest hole (in millimeters) that the product will flow through is determined in the FLODEX apparatus. Using this information and the bulk density of each powder (as determined in a 250 mL graduated cylinder) the coefficient of friction or viscosity (K) was calculated. The viscosity K (in poises) is equal to 490 (½ the acceleration of gravity) times the radius of the hole in centimeters times the bulk density of the sample. The result K is then multiplied by 100 to express the viscosity in centipoises.

[3] = jet mill Grinding Pressure 25 PSI, Feed Injection Pressure 20 PSI
[4] = jet mill Grinding Pressure 25 PSI, Feed Injection Pressure 40 PSI
[5] = jet mill Grinding Pressure 25 PSI, Feed Injection Pressure 60 PSI
[6] = jet mill Grinding Pressure 30 PSI, Feed Injection Pressure 20 PSI
[7] = jet mill Grinding Pressure 30 PSI, Feed Injection Pressure 40 PSI
[8] = jet mill Grinding Pressure 30 PSI, Feed Injection Pressure 60 PSI
[9] = jet mill Grinding Pressure 35 PSI, Feed Injection Pressure 20 PSI
[10] = jet mill Grinding Pressure 35 PSI, Feed Injection Pressure 40 PSI
[11] = jet mill Grinding Pressure 35 PSI, Feed Injection Pressure 60 PSI

Structure (SMILES): OC[C@@H](O)[C@@H](O[C@@H]1O[C@H](CO)[C@H](O)[C@H](O)[C@H]1O)[C@H](O)[C@@H](O)CO [Drum No. 20]
- PS d10 ([1]; listed as 20): 4.0 μ
- PS d50 ([1]; listed as 20): 33.8 μ
- PS d90 ([1]; listed as 20): 209.8 μ
- Particle Size Span ([1]; listed as 20): 6.1

Structure (SMILES): OC[C@@H](O)[C@@H](O[C@@H]1O[C@H](CO)[C@H](O)[C@H](O)[C@H]1O)[C@H](O)[C@@H](O)CO [Drum No. 21]
- PS d10 ([1]; listed as 21): 5.0 μ
- PS d50 ([1]; listed as 21): 50.8 μ
- PS d90 ([1]; listed as 21): 290.2 μ
- Particle Size Span ([1]; listed as 21): 5.6

Structure (SMILES): OC[C@@H](O)[C@@H](O[C@@H]1O[C@H](CO)[C@H](O)[C@H](O)[C@H]1O)[C@H](O)[C@@H](O)CO [Drum No. 22]
- PS d10 ([1]; listed as 22): 4.4 μ
- PS d50 ([1]; listed as 22): 36.7 μ
- PS d90 ([1]; listed as 22): 235.3 μ
- Particle Size Span ([1]; listed as 22): 6.3

Structure (SMILES): OC[C@@H](O)[C@@H](O[C@@H]1O[C@H](CO)[C@H](O)[C@H](O)[C@H]1O)[C@H](O)[C@@H](O)CO [Drum No. 24]
- PS d10 ([1]; listed as 24): 5.4 μ
- PS d50 ([1]; listed as 24): 53.1 μ
- PS d90 ([1]; listed as 24): 289.0 μ
- Particle Size Span ([1]; listed as 24): 5.3

Structure (SMILES): OC[C@@H](O)[C@@H](O[C@@H]1O[C@H](CO)[C@H](O)[C@H](O)[C@H]1O)[C@H](O)[C@@H](O)CO [Drum No. 25]
- PS d10 ([1]; listed as 25): 4.2 μ
- PS d50 ([1]; listed as 25): 35.5 μ
- PS d90 ([1]; listed as 25): 261.8 μ
- Particle Size Span ([1]; listed as 25): 7.3

Structure (SMILES): OC[C@@H](O)[C@@H](O[C@@H]1O[C@H](CO)[C@H](O)[C@H](O)[C@H]1O)[C@H](O)[C@@H](O)CO [Drum No. 26]
- PS d10 ([1]; listed as 26): 4.4 μ
- PS d50 ([1]; listed as 26): 40.8 μ
- PS d90 ([1]; listed as 26): 298.4 μ
- Particle Size Span ([1]; listed as 26): 7.2

Structure (SMILES): OC[C@@H](O)[C@@H](O[C@@H]1O[C@H](CO)[C@H](O)[C@H](O)[C@H]1O)[C@H](O)[C@@H](O)CO [Drum No. 27]
- PS d10 ([1]; listed as 27): 4.2 μ
- PS d50 ([1]; listed as 27): 40.2 μ
- PS d90 ([1]; listed as 27): 272.3 μ
- Particle Size Span ([1]; listed as 27): '6.7

Structure (SMILES): OC[C@@H](O)[C@@H](O[C@@H]1O[C@H](CO)[C@H](O)[C@H](O)[C@H]1O)[C@H](O)[C@@H](O)CO [Drum No. 28]
- PS d10 ([1]; listed as 28): 4.6 μ
- PS d50 ([1]; listed as 28): 40.4 μ
- PS d90 ([1]; listed as 28): 263.7 μ
- Particle Size Span ([1]; listed as 28): 6.4

Structure (SMILES): OC[C@@H](O)[C@@H](O[C@@H]1O[C@H](CO)[C@H](O)[C@H](O)[C@H]1O)[C@H](O)[C@@H](O)CO [Drum No. 29]
- PS d10 ([1]; listed as 29): 5.7 μ
- PS d50 ([1]; listed as 29): 84.8 μ
- PS d90 ([1]; listed as 29): 401.6 μ
- Particle Size Span ([1]; listed as 29): 4.7

Structure (SMILES): OC[C@@H](O)[C@@H](O[C@@H]1O[C@H](CO)[C@H](O)[C@H](O)[C@H]1O)[C@H](O)[C@@H](O)CO [Drum No. 33]
- PS d10 ([1]; listed as 33): 4.1 μ
- PS d50 ([1]; listed as 33): 36.6 μ
- PS d90 ([1]; listed as 33): 267.6 μ
- Particle Size Span ([1]; listed as 33): 7.2

Structure (SMILES): OC[C@@H](O)[C@@H](O[C@@H]1O[C@H](CO)[C@H](O)[C@H](O)[C@H]1O)[C@H](O)[C@@H](O)CO [Drum No. 37]
- PS d10 ([1]; listed as 37): 4.4 μ
- PS d50 ([1]; listed as 37): 43.9 μ
- PS d90 ([1]; listed as 37): 337.2 μ
- Particle Size Span ([1]; listed as 37): 7.6

Structure (SMILES): OC[C@@H](O)[C@@H](O[C@@H]1O[C@H](CO)[C@H](O)[C@H](O)[C@H]1O)[C@H](O)[C@@H](O)CO [Drum No. Last]
- PS d10 ([1]; listed as Last): 4.2 μ
- PS d50 ([1]; listed as Last): 39.1 μ
- PS d90 ([1]; listed as Last): 341.6 μ
- Particle Size Span ([1]; listed as Last): 8.6

Structure (SMILES): OC[C@@H](O)[C@@H](O[C@@H]1O[C@H](CO)[C@H](O)[C@H](O)[C@H]1O)[C@H](O)[C@@H](O)CO [Proof of Concept]
- PS d10 [1]: 5.3 μ
- PS d50 [1]: 60.0 μ
- PS d90 [1]: 316.2 μ
- Particle Size Span [1]: 5.2

Structure (SMILES): OC[C@@H](O)[C@@H](O[C@@H]1O[C@H](CO)[C@H](O)[C@H](O)[C@H]1O)[C@H](O)[C@@H](O)CO [Sample 1b]
- PS d10 [1]: 5.6 μ
- PS d50 [1]: 56.7 μ
- PS d90 [1]: 420.9 μ
- Particle Size Span [1]: 7.3

Structure (SMILES): OC[C@@H](O)[C@@H](O[C@@H]1O[C@H](CO)[C@H](O)[C@H](O)[C@H]1O)[C@H](O)[C@@H](O)CO [Sample 2b]
- PS d10 [1]: 5.5 μ
- PS d50 [1]: 56.5 μ
- PS d90 [1]: 401.2 μ
- Particle Size Span [1]: 7.0

Structure (SMILES): OC[C@@H](O)[C@@H](O[C@@H]1O[C@H](CO)[C@H](O)[C@H](O)[C@H]1O)[C@H](O)[C@@H](O)CO [Sample 3b]
- PS d10 [1]: 7.6 μ
- PS d50 [1]: 113.1 μ
- PS d90 [1]: 656.4 μ
- Particle Size Span [1]: 5.7

Structure (SMILES): OC[C@@H](O)[C@@H](O[C@@H]1O[C@H](CO)[C@H](O)[C@H](O)[C@H]1O)[C@H](O)[C@@H](O)CO [jet milled lactitol]
- viscosity (flowability) [2]: 46,905 cps
- viscosity of jet milled lactitol, times higher than raw lactitol [2]: approximately 4.8 times
- Particle Size Span [1, 3]: 4.2
- Particle Size d10 [1, 3]: 10.8 μ
- Particle Size d50 [1, 3]: 150.7 μ
- Particle Size d90 [1, 3]: 646.1 μ
- Particle Size Span [1, 4]: 4.6
- Particle Size d10 [1, 4]: 8.5 μ
- Particle Size d50 [1, 4]: 122.9 μ
- Particle Size d90 [1, 4]: 585.1 μ
- Particle Size Span [1, 5]: 7.2
- Particle Size d10 [1, 5]: 5.5 μ
- Particle Size d50 [1, 5]: 84.3 μ
- Particle Size d90 [1, 5]: 619.5 μ
- Particle Size Span [1, 6]: 12.7
- Particle Size d10 [1, 6]: 4.5 μ
- Particle Size d50 [1, 6]: 47.8 μ
- Particle Size d90 [1, 6]: 615.2 μ
- Particle Size Span [1, 7]: 13.7
- Particle Size d10 [1, 7]: 4.5 μ
- Particle Size d50 [1, 7]: 46.3 μ
- Particle Size d90 [1, 7]: 640.1 μ
- Particle Size Span [1, 8]: 11.1
- Particle Size d10 [1, 8]: 4.5 μ
- Particle Size d50 [1, 8]: 45.6 μ
- Particle Size d90 [1, 8]: 513.0 μ
- Particle Size Span [1, 9]: 17.5
- Particle Size d10 [1, 9]: 4.1 μ
- Particle Size d50 [1, 9]: 36.0 μ
- Particle Size d90 [1, 9]: 635.0 μ
- Particle Size Span [1, 10]: 6.5
- Particle Size d10 [1, 10]: 5.8 μ
- Particle Size d50 [1, 10]: 83.4 μ
- Particle Size d90 [1, 10]: 548.6 μ
- Particle Size Span [1, 11]: 5.4
- Particle Size d10 [1, 11]: 7.6 μ
- Particle Size d50 [1, 11]: 110.9 μ
- Particle Size d90 [1, 11]: 611.9 μ
